In ChEMBL document CHEMBL1201862, “PubChem BioAssay data set” (2004):
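All cell lines were grown in 96-well plates and treated with compound for 48 hours. Abbreviation: GI50, concentration required for 50% inhibition of growth.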 Active and inactive are the calls of the source. Cut-off read from the data, not from the text of the source: active = GI50 up to about 1.1 µM and inactive = higher.

How the values were obtained:
Assay in all cases: inhibition of tumour cell growth, NCI panel, 48 h
[1] = test system: HOP-92
[2] = test system: BT-549
[3] = test system: NCI-H522
[4] = test system: SF-268
[5] = test system: SR
[6] = test system: SK-MEL-5
[7] = test system: UO-31
[8] = test system: PC-3
[9] = test system: MDA-MB-435
[10] = test system: HCT-116
[11] = test system: HOP-62
[12] = test system: NCI-H460
[13] = test system: RPMI-8226
[14] = test system: NCI-H23
[15] = test system: SF-295
[16] = test system: HL-60
[17] = test system: IGROV-1
[18] = test system: SK-MEL-2
[19] = test system: LOX IMVI
[20] = test system: OVCAR-4

Measured: GI50

N/C(=N\Nc1ccc(Cl)cc1)c1cnccn1
inactive: [1] > 100 µM | [2] > 100 µM | [3] 28.3 µM | [4] > 100 µM | [5] 5.71 µM | [6] 21.1 µM | [7] 50.7 µM | [8] 54.7 µM | [9] 16.3 µM | [10] 22.4 µM | [11] 85.5 µM | [12] 37.2 µM | [13] 78.3 µM | [14] > 100 µM | [15] 13.2 µM | [16] 3.48 µM | [17] > 100 µM | [18] 58.1 µM | [19] 84.1 µM | [20] 29.1 µM

COc1ccc2nc3ccc(OC)cc3c([S+]([O-])Cc3ccccc3)c2c1 (stereo not drawn)
inactive: [1] 4.76 µM | [2] 14.3 µM | [3] 1.65 µM | [4] 16.9 µM | [5] 3.04 µM | [6] 16.8 µM | [7] 6.87 µM | [8] 14.2 µM | [9] 12.8 µM | [10] 2.45 µM | [11] 18 µM | [12] 25.5 µM | [13] 2.3 µM | [14] 8.81 µM | [15] 17.8 µM | [16] 3.84 µM | [17] 7.96 µM | [18] 17 µM | [19] 2.07 µM | [20] 14.9 µM

NCCSS(=O)(=O)CCN
inactive: [1] > 100 µM | [2] > 100 µM | [3] > 100 µM | [4] > 100 µM | [5] > 100 µM | [6] > 100 µM | [7] > 100 µM | [8] > 100 µM | [9] > 100 µM | [10] > 100 µM | [11] > 100 µM | [12] > 100 µM | [13] > 100 µM | [14] > 100 µM | [15] > 100 µM | [16] > 100 µM | [17] > 100 µM | [18] > 100 µM | [19] > 100 µM | [20] > 100 µM

C=C(C)[C@H]1C2=CC(C)=C(O2)[C@@H](O)[C@H](C(=C)C)CCC2=C[C@H]1OC2=O [KALLOLIDE A]
inactive: [1] > 100 µM | [2] > 100 µM | [3] 87.7 µM | [4] > 100 µM | [5] 99.5 µM | [6] > 100 µM | [7] > 100 µM | [8] > 100 µM | [9] > 100 µM | [12] > 100 µM | [13] > 100 µM | [15] > 100 µM | [16] > 100 µM | [17] > 100 µM | [18] > 100 µM | [19] > 100 µM | [20] > 100 µM

COC1(C)Cc2c(c(C)c(O)c3c2C(=O)C=C(Cl)C3=O)O1 (stereo not drawn)
inactive: [1] 18.9 µM | [2] > 100 µM | [3] 16.9 µM | [4] > 88.1 µM | [5] 3.89 µM | [6] 40.8 µM | [7] > 87.3 µM | [8] > 100 µM | [9] > 100 µM | [10] 44.5 µM | [11] > 100 µM | [12] > 100 µM | [13] 14.7 µM | [14] 66.8 µM | [15] > 100 µM | [16] 3.48 µM | [17] 55.5 µM | [18] > 84.1 µM | [19] 44.8 µM | [20] 41.3 µM

COc1ccc(OC)c2nc3c(C(=O)NCCN(C)C)cccc3nc12
inactive: [1] 4.18 µM | [2] 10.8 µM | [3] 2.61 µM | [4] 3.94 µM | [5] 2.17 µM | [6] 3.67 µM | [7] 2.72 µM | [8] 4.04 µM | [9] 5.11 µM | [10] 1.79 µM | [11] 4.55 µM | [12] 3.24 µM | [13] 2.84 µM | [14] 3.7 µM | [15] 3.99 µM | [16] 3.18 µM | [17] 4.59 µM | [18] 8.45 µM | [19] 1.78 µM | [20] 3.09 µM

COc1ccc(C(=O)N(Cc2cccnc2)C(=S)N(Cc2cccnc2)C(=O)c2ccc(OC)cc2)cc1
inactive: [1] 36.6 µM | [2] > 100 µM | [3] 72.1 µM | [4] 52.1 µM | [5] > 100 µM | [6] > 100 µM | [8] > 100 µM | [9] 62.8 µM | [10] > 100 µM | [11] 35 µM | [12] > 100 µM | [13] > 100 µM | [14] > 100 µM | [15] 57.8 µM | [16] > 100 µM | [18] > 100 µM | [19] > 100 µM | [20] 37.4 µM

NC(=O)CSc1c2cc(O)ccc2nc2ccc(O)cc12
inactive: [1] > 10 µM | [2] > 10 µM | [3] > 10 µM | [4] > 10 µM | [5] > 10 µM | [6] > 10 µM | [8] > 10 µM | [9] > 10 µM | [10] > 10 µM | [11] > 10 µM | [12] > 10 µM | [13] > 10 µM | [14] > 10 µM | [15] > 10 µM | [16] > 10 µM | [17] > 10 µM | [18] > 10 µM | [19] > 10 µM | [20] > 10 µM

CN(C)CCNC1=CC(=O)c2nc3ccccc3c3ccnc1c23
inactive: [1] 11.7 µM | [2] 7.26 µM | [3] 2.94 µM | [4] 4.53 µM | [5] 2.25 µM | [7] 3.89 µM | [8] 3.36 µM | [9] 7.52 µM | [10] 2.88 µM | [11] 4.79 µM | [12] 2.39 µM | [13] 5.47 µM | [14] 5.56 µM | [15] 4.47 µM | [16] 3.83 µM | [17] 2.47 µM | [18] 7.38 µM | [19] 2.04 µM | [20] 3.57 µM

COc1nc(SC)nc2c1C(O)n1c(nc3ccccc31)S2 (stereo not drawn)
inactive: [1] 23.3 µM | [2] 28.1 µM | [3] 23 µM | [4] 18.4 µM | [5] 3.58 µM | [7] 3.08 µM | [8] 19.3 µM | [9] 20.1 µM | [10] 11.5 µM | [11] 12.1 µM | [12] 15 µM | [14] 19.5 µM | [15] 20.7 µM | [16] 12.3 µM | [17] 40.9 µM | [18] 28.9 µM | [19] 34.6 µM | [20] 17.4 µM
active: [13] 0.42 µM

O[C@H]1[C@H](O)[C@H](O)CN2CCC[C@@H](O)[C@H]12
inactive: [1] > 100 µM | [2] > 100 µM | [3] > 100 µM | [4] > 100 µM | [5] > 100 µM | [6] > 100 µM | [7] > 100 µM | [8] > 100 µM | [9] > 100 µM | [10] > 100 µM | [11] > 100 µM | [13] > 100 µM | [14] > 100 µM | [15] > 100 µM | [16] > 100 µM | [17] > 100 µM | [18] > 100 µM | [19] > 100 µM | [20] > 100 µM

COc1cc(NC(C)=O)ccc1C(=O)N/N=C/c1ccc(Cl)cc1Cl
inactive: [1] 35.4 µM | [2] > 100 µM | [3] 45.2 µM | [4] 32.6 µM | [5] 18.2 µM | [6] 77.3 µM | [7] 43.1 µM | [8] 34.8 µM | [9] 19.6 µM | [10] 80.5 µM | [11] 29.6 µM | [13] 65.6 µM | [14] 71.9 µM | [15] 57 µM | [16] 46.6 µM | [17] 30.2 µM | [18] 19.2 µM | [19] 69.2 µM | [20] 23.2 µM

O=c1[nH]cnc2c1ncn2[C@@H]1C[C@H]1CO
inactive: [1] > 100 µM | [2] > 100 µM | [3] > 100 µM | [4] > 100 µM | [5] > 100 µM | [6] > 100 µM | [7] > 100 µM | [8] > 100 µM | [9] > 100 µM | [10] > 100 µM | [11] > 100 µM | [12] > 100 µM | [13] > 100 µM | [14] > 100 µM | [16] > 100 µM | [17] > 100 µM | [18] > 100 µM | [19] > 100 µM | [20] > 100 µM

O=[N+]([O-])c1ccc2c3c1[C@@H]1O[C@@H]1c1cccc(c1-3)[C@@H]1O[C@H]21
inactive: [1] 9.46 µM | [2] 6.11 µM | [3] 1.67 µM | [4] 2.56 µM | [5] 4.21 µM | [6] 10.7 µM | [7] 2.07 µM | [8] 7.91 µM | [9] 2.08 µM | [10] 2.42 µM | [11] 10.2 µM | [13] 1.88 µM | [14] 3.94 µM | [15] 11 µM | [16] 3.1 µM | [17] 1.24 µM | [18] 6.14 µM | [19] 1.27 µM | [20] 3.35 µM
